#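 Interpolation was linear, between the two tested concentrations surrounding the appropriate level; five concentrations were tested over 48 hours in 96-well plates. Abbreviation: GI50, concentration required for 50% inhibition of growth.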 The source made the active and inactive calls. Cut-off read from the data, not from the text of the source: active = GI50 up to about 1.1 µM and inactive = higher.
# Columns and labels:
# Assay in all cases: NCI-60 cell line screen, 48 h
# [1] = system: SNB-19
# [2] = system: HCT-15
# [3] = system: TK-10
# [4] = system: SF-295
# [5] = system: OVCAR-5
# [6] = system: CAKI-1
# [7] = system: HT-29
# [8] = system: NCI-H460
# [9] = system: LOX IMVI
# [10] = system: ACHN
# [11] = system: UACC-62
# [12] = system: SK-MEL-5
# [13] = system: SF-268
# [14] = system: DU-145
# [15] = system: KM12
# [16] = system: HCT-116
# [17] = system: SN12C
# [18] = system: Hs-578T
# [19] = system: U-251
# [20] = system: COLO 205
# [21] = system: MCF7
# [22] = system: OVCAR-3
# [23] = system: NCI-H23
# [24] = system: SK-MEL-2
# [25] = system: HCC 2998
# [26] = system: SF-539
# [27] = system: MDA-MB-435
# [28] = system: UO-31
# [29] = system: EKVX
# [30] = system: M14
# [31] = system: HOP-62
# [32] = system: PC-3
# [33] = system: NCI/ADR-RES
# [34] = system: Malme-3M
# [35] = system: T47D
# [36] = system: UACC-257
# [37] = system: OVCAR-8
# [38] = system: NCI-H522
# [39] = system: HOP-92
# [40] = system: MDA-N
# [41] = system: OVCAR-4
# [42] = system: SK-MEL-28
# [43] = system: A498
# [44] = system: 786-0
# [45] = system: MOLT-4
# [46] = system: K562
# [47] = system: A549
# [48] = system: MDA-MB-231
# [49] = system: IGROV-1
# [50] = system: SR
# [51] = system: BT-549
# [52] = system: SW-620
# [53] = system: SK-OV-3
# [54] = system: SNB-75
# [55] = system: RPMI-8226
# [56] = system: NCI-H226
# [57] = system: RXF 393
# [58] = system: HL-60
# [59] = system: CCRF-CEM
structure (smiles),measurement,setting,value
CCOC(=O)C1=C(C#N)S(=O)(=O)c2c(oc(C)c2C)N1,GI50,[1],> 100 µM (inactive)
same,GI50,[2],> 100 µM
same,GI50,[3],> 100 µM (inactive)
same,GI50,[4],> 100 µM (inactive)
same,GI50,[5],> 100 µM (inactive)
same,GI50,[6],> 100 µM (inactive)
same,GI50,[7],> 100 µM (inactive)
same,GI50,[8],> 100 µM (inactive)
same,GI50,[9],> 100 µM (inactive)
same,GI50,[10],> 100 µM (inactive)
same,GI50,[11],> 100 µM (inactive)
same,GI50,[12],> 100 µM (inactive)
same,GI50,[13],> 100 µM (inactive)
same,GI50,[14],> 100 µM (inactive)
same,GI50,[15],> 100 µM (inactive)
same,GI50,[16],> 100 µM (inactive)
same,GI50,[17],> 100 µM (inactive)
same,GI50,[18],> 100 µM (inactive)
same,GI50,[19],> 100 µM (inactive)
same,GI50,[20],> 100 µM (inactive)
same,GI50,[21],> 100 µM (inactive)
same,GI50,[22],> 100 µM (inactive)
same,GI50,[23],> 100 µM (inactive)
same,GI50,[24],> 100 µM (inactive)
same,GI50,[25],> 100 µM (inactive)
same,GI50,[26],> 100 µM (inactive)
same,GI50,[27],> 100 µM (inactive)
same,GI50,[28],> 100 µM (inactive)
same,GI50,[29],> 100 µM (inactive)
same,GI50,[30],> 100 µM (inactive)
same,GI50,[31],> 100 µM (inactive)
same,GI50,[32],> 100 µM (inactive)
same,GI50,[33],> 100 µM (inactive)
same,GI50,[34],> 100 µM (inactive)
same,GI50,[35],> 100 µM (inactive)
same,GI50,[36],> 100 µM (inactive)
same,GI50,[37],> 100 µM (inactive)
same,GI50,[38],> 100 µM (inactive)
same,GI50,[39],> 100 µM (inactive)
same,GI50,[40],> 100 µM (inactive)
same,GI50,[41],> 100 µM (inactive)
same,GI50,[42],> 100 µM (inactive)
same,GI50,[43],> 100 µM (inactive)
same,GI50,[44],> 100 µM (inactive)
same,GI50,[45],> 100 µM (inactive)
same,GI50,[46],> 100 µM (inactive)
same,GI50,[47],> 100 µM (inactive)
same,GI50,[48],> 100 µM (inactive)
same,GI50,[49],> 100 µM (inactive)
same,GI50,[50],> 100 µM (inactive)
same,GI50,[51],> 100 µM (inactive)
same,GI50,[52],> 100 µM (inactive)
same,GI50,[53],> 100 µM (inactive)
same,GI50,[54],> 100 µM (inactive)
same,GI50,[55],> 100 µM (inactive)
same,GI50,[56],> 100 µM (inactive)
COC(=O)c1cnn2c1n[n+]([O-])c1ccccc12,GI50,[3],> 100 µM (inactive)
same,GI50,[4],> 100 µM (inactive)
same,GI50,[5],> 100 µM (inactive)
same,GI50,[6],> 100 µM (inactive)
same,GI50,[7],> 100 µM (inactive)
same,GI50,[9],> 100 µM (inactive)
same,GI50,[10],> 100 µM (inactive)
same,GI50,[11],> 100 µM (inactive)
same,GI50,[12],26.9 µM (inactive)
same,GI50,[13],> 100 µM (inactive)
same,GI50,[14],> 100 µM (inactive)
same,GI50,[15],> 100 µM (inactive)
same,GI50,[16],> 100 µM (inactive)
same,GI50,[17],> 100 µM (inactive)
same,GI50,[18],> 100 µM (inactive)
same,GI50,[19],> 100 µM (inactive)
same,GI50,[20],85.5 µM (inactive)
same,GI50,[21],> 100 µM (inactive)
same,GI50,[22],25.9 µM (inactive)
same,GI50,[23],57 µM (inactive)
same,GI50,[24],> 100 µM (inactive)
same,GI50,[57],> 100 µM (inactive)
same,GI50,[27],> 100 µM (inactive)
same,GI50,[28],37.4 µM (inactive)
same,GI50,[29],> 100 µM (inactive)
same,GI50,[58],68.5 µM (inactive)
same,GI50,[30],> 100 µM (inactive)
same,GI50,[31],> 100 µM (inactive)
same,GI50,[32],> 100 µM (inactive)
same,GI50,[33],> 100 µM (inactive)
same,GI50,[34],> 100 µM (inactive)
same,GI50,[35],> 100 µM (inactive)
same,GI50,[36],> 100 µM (inactive)
same,GI50,[37],> 100 µM (inactive)
same,GI50,[38],> 100 µM (inactive)
same,GI50,[39],> 100 µM (inactive)
same,GI50,[40],> 100 µM (inactive)
same,GI50,[42],> 100 µM (inactive)
same,GI50,[43],30.3 µM (inactive)
same,GI50,[44],> 100 µM (inactive)
same,GI50,[45],> 100 µM (inactive)
same,GI50,[59],> 100 µM (inactive)
same,GI50,[46],> 100 µM (inactive)
same,GI50,[47],> 100 µM (inactive)
same,GI50,[48],> 100 µM (inactive)
same,GI50,[49],> 100 µM (inactive)
same,GI50,[50],> 100 µM (inactive)
same,GI50,[51],> 100 µM (inactive)
same,GI50,[52],> 100 µM (inactive)
same,GI50,[53],> 100 µM (inactive)
same,GI50,[54],> 100 µM (inactive)
same,GI50,[55],> 100 µM (inactive)
same,GI50,[56],> 100 µM (inactive)
O=C(O)c1ccc(/C=N/N=C2c3ccccc3-c3ccccc32)cc1,GI50,[1],48 µM (inactive)
same,GI50,[2],57.1 µM
same,GI50,[3],66.1 µM (inactive)
same,GI50,[4],12.7 µM (inactive)
same,GI50,[5],50.2 µM (inactive)
same,GI50,[6],38.6 µM (inactive)
same,GI50,[7],54.3 µM (inactive)
same,GI50,[8],41.2 µM (inactive)
same,GI50,[9],> 100 µM (inactive)
same,GI50,[10],48.3 µM (inactive)
same,GI50,[11],61.8 µM (inactive)
same,GI50,[12],26.5 µM (inactive)
same,GI50,[13],23.6 µM (inactive)
same,GI50,[14],> 100 µM (inactive)
same,GI50,[15],35.2 µM (inactive)
same,GI50,[16],> 100 µM (inactive)
same,GI50,[17],31.5 µM (inactive)
same,GI50,[18],13.7 µM (inactive)
same,GI50,[19],37.4 µM (inactive)
same,GI50,[20],57.8 µM (inactive)
same,GI50,[21],33.2 µM (inactive)
same,GI50,[22],19.6 µM (inactive)
same,GI50,[23],53.8 µM (inactive)
same,GI50,[24],27.4 µM (inactive)
same,GI50,[26],31 µM (inactive)
same,GI50,[57],89.9 µM (inactive)
same,GI50,[27],73.5 µM (inactive)
same,GI50,[28],42 µM (inactive)
same,GI50,[29],> 100 µM (inactive)
same,GI50,[58],32.9 µM (inactive)
same,GI50,[30],67.1 µM (inactive)
same,GI50,[31],54.7 µM (inactive)
same,GI50,[32],35 µM (inactive)
same,GI50,[33],> 100 µM (inactive)
same,GI50,[34],29 µM (inactive)
same,GI50,[35],64 µM (inactive)
same,GI50,[36],67.5 µM (inactive)
same,GI50,[37],49.8 µM (inactive)
same,GI50,[38],60.7 µM (inactive)
same,GI50,[39],40.6 µM (inactive)
same,GI50,[40],50.9 µM (inactive)
same,GI50,[41],35.8 µM (inactive)
same,GI50,[42],62.4 µM (inactive)
same,GI50,[43],> 100 µM (inactive)
same,GI50,[44],> 100 µM (inactive)
same,GI50,[45],38.6 µM (inactive)
same,GI50,[59],44.1 µM (inactive)
same,GI50,[46],55.8 µM (inactive)
same,GI50,[47],74 µM (inactive)
same,GI50,[48],> 100 µM (inactive)
same,GI50,[49],54.8 µM (inactive)
same,GI50,[50],30.4 µM (inactive)
same,GI50,[51],> 100 µM (inactive)
same,GI50,[52],36.1 µM (inactive)
same,GI50,[53],74.3 µM (inactive)
same,GI50,[55],63.7 µM (inactive)
same,GI50,[56],22.4 µM (inactive)
